The values below come from ChEMBL document CHEMBL3044680, “Synthesis, characterization, and antimicrobial studies of novel 1,3,4-thiadiazolium-5-thiolates” (2012).

Type in all cases: functional
The test system of experiment [1] is Pseudomonas aeruginosa. As to the kind of experiment: Antimicrobial activity against Pseudomonas aeruginosa at 200 ug/ml after 48 hr by cup-plate method. The note with it: read-out: IZ.
Experiment [2] has as its system Staphylococcus aureus. As to the kind of experiment: Antimicrobial activity against Staphylococcus aureus after overnight incubation by broth dilution method.
The subject of experiment [3] is Pseudomonas aeruginosa. Kind of experiment: Antimicrobial activity against Pseudomonas aeruginosa after overnight incubation by broth dilution method.
Experiment [4] deals with Escherichia coli. Kind of experiment: Antimicrobial activity against Escherichia coli at 200 ug/ml after 48 hr by cup-plate method. The conditions noted are these: read-out: IZ.
For experiment [5], the system named is Bacillus subtilis. As to the kind of experiment: Antimicrobial activity against Bacillus subtilis at 200 ug/ml after 48 hr by cup-plate method. The conditions noted are these: read-out: IZ.
Experiment [6] deals with Staphylococcus aureus. Kind of experiment: Antimicrobial activity against Staphylococcus aureus at 200 ug/ml after 48 hr by cup-plate method. The conditions noted are these: read-out: IZ.
The subject of experiment [7] is Bacillus subtilis. As to the kind of experiment: Antimicrobial activity against Bacillus subtilis after overnight incubation by broth dilution method.
Experiment [8] relates to Escherichia coli. Kind of experiment: Antimicrobial activity against Escherichia coli after overnight incubation by broth dilution method.

≈ marks a conversion by molar mass, not a printed value.

As a reminder, the MIC is the smallest concentration in the dilution series that meets the test's criterion for growth inhibition. Higher therefore signals weaker potency. Take `Cc1sc([S-])n[n+]1C(=O)c1ccc(-n2c(-c3ccccc3)nc3ccccc3c2=O)cc1`: the zone of inhibition at 200 µg/mL was found to be 18 mm in the experiment with Pseudomonas aeruginosa [1], 17 mm in the experiment with Escherichia coli [4], 22 mm in the experiment with Bacillus subtilis [5] and 28 mm in the experiment with Staphylococcus aureus [6]. The MIC against Staphylococcus aureus [2] was 1 µg/mL (≈ 2.19 µM); in the experiment on Pseudomonas aeruginosa [3] it was 16 µg/mL (≈ 35 µM); with Bacillus subtilis [7] it was 8 µg/mL (≈ 17.5 µM); against Escherichia coli [8], 32 µg/mL (≈ 70.1 µM).

In the case of `O=C(c1ccc(-n2c(-c3ccccc3)nc3ccccc3c2=O)cc1)[n+]1nc([S-])sc1-c1ccccc1`, the zone of inhibition at 200 µg/mL in the experiment on Pseudomonas aeruginosa [1] is 22 mm; in the experiment on Escherichia coli [4], 28 mm; in the experiment on Bacillus subtilis [5], 25 mm; with Staphylococcus aureus [6], 24 mm. For the same compound, the MIC in the experiment on Staphylococcus aureus [2] was 4 µg/mL (≈ 7.71 µM); against Pseudomonas aeruginosa [3], 8 µg/mL (≈ 15.4 µM); against Bacillus subtilis [7], 2 µg/mL (≈ 3.86 µM); against Escherichia coli [8] it was 2 µg/mL (≈ 3.86 µM).

Turning to `O=C(c1ccc(-n2c(-c3ccccc3)nc3ccccc3c2=O)cc1)[n+]1nc([S-])sc1-c1cc([N+](=O)[O-])ccc1Cl`, the zone of inhibition at 200 µg/mL in the experiment on Pseudomonas aeruginosa [1] worked out at 22 mm; in the experiment with Escherichia coli [4], 19 mm; with Bacillus subtilis [5], 18 mm; in the experiment with Staphylococcus aureus [6] it was 26 mm. Moreover, the MIC in the experiment on Staphylococcus aureus [2] turned out to be 2 µg/mL (≈ 3.34 µM); with Pseudomonas aeruginosa [3], 8 µg/mL (≈ 13.4 µM); in the experiment with Bacillus subtilis [7], 16 µg/mL (≈ 26.8 µM); in the experiment on Escherichia coli [8], 16 µg/mL (≈ 26.8 µM).

Regarding `O=C(c1ccc(-n2c(-c3ccccc3)nc3ccccc3c2=O)cc1)[n+]1nc([S-])sc1-c1ccc(Cl)c([N+](=O)[O-])c1`, the zone of inhibition at 200 µg/mL was 24 mm with Pseudomonas aeruginosa [1], 22 mm in the experiment on Escherichia coli [4], 14 mm with Bacillus subtilis [5] and 20 mm in the experiment with Staphylococcus aureus [6]. The MIC turned out to be 8 µg/mL (≈ 13.4 µM) with Staphylococcus aureus [2], 4 µg/mL (≈ 6.69 µM) in the experiment with Pseudomonas aeruginosa [3], 64 µg/mL (≈ 107 µM) in the experiment with Bacillus subtilis [7] and 8 µg/mL (≈ 13.4 µM) in the experiment on Escherichia coli [8].

Take `COc1ccc(-c2sc([S-])n[n+]2C(=O)c2ccc(-n3c(-c4ccccc4)nc4ccccc4c3=O)cc2)cc1[N+](=O)[O-]`: the zone of inhibition at 200 µg/mL was 27 mm in the experiment with Pseudomonas aeruginosa [1], 15 mm in the experiment with Escherichia coli [4], 16 mm with Bacillus subtilis [5] and 19 mm in the experiment with Staphylococcus aureus [6]. Also, the MIC against Staphylococcus aureus [2] was found to be 16 µg/mL (≈ 27 µM); against Pseudomonas aeruginosa [3], 2 µg/mL (≈ 3.37 µM); in the experiment on Bacillus subtilis [7], 32 µg/mL (≈ 53.9 µM); in the experiment with Escherichia coli [8], 32 µg/mL (≈ 53.9 µM).

As to `O=C(c1ccc(-n2c(-c3ccccc3)nc3ccccc3c2=O)cc1)[n+]1nc([S-])sc1-c1ccc(Cl)cc1`, the zone of inhibition at 200 µg/mL with Pseudomonas aeruginosa [1] was 21 mm; in the experiment with Escherichia coli [4] it was 16 mm; in the experiment on Bacillus subtilis [5], 20 mm; in the experiment with Staphylococcus aureus [6] it was 22 mm. The MIC in the experiment with Staphylococcus aureus [2] is 8 µg/mL (≈ 14.5 µM); with Pseudomonas aeruginosa [3], 8 µg/mL (≈ 14.5 µM); against Bacillus subtilis [7] it was 8 µg/mL (≈ 14.5 µM); with Escherichia coli [8], 16 µg/mL (≈ 28.9 µM).

With `O=C(c1ccc(-n2c(-c3ccccc3)nc3ccccc3c2=O)cc1)[n+]1nc([S-])sc1-c1ccc([N+](=O)[O-])cc1`, the zone of inhibition at 200 µg/mL in the experiment with Pseudomonas aeruginosa [1] was found to be 22 mm; in the experiment on Escherichia coli [4], 23 mm; in the experiment with Bacillus subtilis [5], 24 mm; in the experiment on Staphylococcus aureus [6], 20 mm. In addition, the MIC against Staphylococcus aureus [2] is 8 µg/mL (≈ 14.2 µM); with Pseudomonas aeruginosa [3], 8 µg/mL (≈ 14.2 µM); against Bacillus subtilis [7], 4 µg/mL (≈ 7.1 µM); against Escherichia coli [8] it was 4 µg/mL (≈ 7.1 µM).

Take `O=C(c1ccc(-n2c(-c3ccccc3)nc3ccccc3c2=O)cc1)[n+]1nc([S-])sc1-c1cccc([N+](=O)[O-])c1`: the zone of inhibition at 200 µg/mL came to 10 mm in the experiment with Pseudomonas aeruginosa [1], 13 mm in the experiment with Escherichia coli [4], 15 mm in the experiment with Bacillus subtilis [5] and 11 mm in the experiment on Staphylococcus aureus [6]. Besides, the MIC against Staphylococcus aureus [2], against Bacillus subtilis [7] and against Escherichia coli [8] was 64 µg/mL (≈ 114 µM) throughout.

Turning to `Cc1sc([S-])n[n+]1C(=O)c1ccc(Nc2nc(-c3ccccc3)nc3ccccc23)cc1`, the zone of inhibition at 200 µg/mL was 23 mm in the experiment on Pseudomonas aeruginosa [1], 20 mm with Escherichia coli [4], 21 mm in the experiment with Bacillus subtilis [5] and 19 mm in the experiment on Staphylococcus aureus [6]. Also, the MIC against Staphylococcus aureus [2] is 16 µg/mL (≈ 35.1 µM); against Pseudomonas aeruginosa [3] it was 4 µg/mL (≈ 8.78 µM); against Bacillus subtilis [7] it was 8 µg/mL (≈ 17.6 µM); in the experiment with Escherichia coli [8], 8 µg/mL (≈ 17.6 µM).

As to `O=C(c1ccc(Nc2nc(-c3ccccc3)nc3ccccc23)cc1)[n+]1nc([S-])sc1-c1ccccc1`, the zone of inhibition at 200 µg/mL stood at 24 mm in the experiment with Pseudomonas aeruginosa [1], 20 mm with Escherichia coli [4], 18 mm in the experiment with Bacillus subtilis [5] and 19 mm in the experiment on Staphylococcus aureus [6]. Besides, the MIC with Staphylococcus aureus [2] stood at 16 µg/mL (≈ 30.9 µM); in the experiment on Pseudomonas aeruginosa [3], 4 µg/mL (≈ 7.73 µM); in the experiment on Bacillus subtilis [7] it was 16 µg/mL (≈ 30.9 µM); with Escherichia coli [8], 8 µg/mL (≈ 15.5 µM).

Take `O=C(c1ccc(Nc2nc(-c3ccccc3)nc3ccccc23)cc1)[n+]1nc([S-])sc1-c1cc([N+](=O)[O-])ccc1Cl`: the zone of inhibition at 200 µg/mL is 26 mm with Pseudomonas aeruginosa [1], 24 mm with Escherichia coli [4], 22 mm in the experiment on Bacillus subtilis [5] and 23 mm in the experiment on Staphylococcus aureus [6]. Also, the MIC against Staphylococcus aureus [2] came to 4 µg/mL (≈ 6.7 µM); in the experiment with Pseudomonas aeruginosa [3] it was 2 µg/mL (≈ 3.35 µM); against Bacillus subtilis [7] it was 8 µg/mL (≈ 13.4 µM); against Escherichia coli [8] it was 4 µg/mL (≈ 6.7 µM).

Turning to `O=C(c1ccc(Nc2nc(-c3ccccc3)nc3ccccc23)cc1)[n+]1nc([S-])sc1-c1ccc(Cl)c([N+](=O)[O-])c1`, the zone of inhibition at 200 µg/mL in the experiment on Pseudomonas aeruginosa [1] amounted to 22 mm; with Escherichia coli [4] it was 15 mm; in the experiment with Bacillus subtilis [5], 19 mm; in the experiment on Staphylococcus aureus [6], 20 mm. The MIC against Staphylococcus aureus [2] amounted to 8 µg/mL (≈ 13.4 µM); with Pseudomonas aeruginosa [3], 8 µg/mL (≈ 13.4 µM); with Bacillus subtilis [7] it was 16 µg/mL (≈ 26.8 µM); with Escherichia coli [8] it was 32 µg/mL (≈ 53.6 µM).

For the compound `COc1ccc(-c2sc([S-])n[n+]2C(=O)c2ccc(Nc3nc(-c4ccccc4)nc4ccccc34)cc2)cc1[N+](=O)[O-]`, the zone of inhibition at 200 µg/mL in the experiment with Pseudomonas aeruginosa [1] was found to be 22 mm; in the experiment on Escherichia coli [4] it was 23 mm; in the experiment with Bacillus subtilis [5] it was 24 mm; with Staphylococcus aureus [6], 22 mm. Further, the MIC worked out at 8 µg/mL (≈ 13.5 µM) against Staphylococcus aureus [2], 8 µg/mL (≈ 13.5 µM) against Pseudomonas aeruginosa [3], 4 µg/mL (≈ 6.75 µM) with Bacillus subtilis [7] and 4 µg/mL (≈ 6.75 µM) against Escherichia coli [8].

Consider `O=C(c1ccc(Nc2nc(-c3ccccc3)nc3ccccc23)cc1)[n+]1nc([S-])sc1-c1ccc(Cl)cc1`, for which the zone of inhibition at 200 µg/mL in the experiment on Pseudomonas aeruginosa [1] came out at 24 mm; in the experiment on Escherichia coli [4], 22 mm; in the experiment on Bacillus subtilis [5], 21 mm; with Staphylococcus aureus [6], 19 mm. Also, the MIC is 16 µg/mL (≈ 29 µM) in the experiment on Staphylococcus aureus [2], 4 µg/mL (≈ 7.25 µM) in the experiment with Pseudomonas aeruginosa [3], 8 µg/mL (≈ 14.5 µM) in the experiment with Bacillus subtilis [7] and 8 µg/mL (≈ 14.5 µM) against Escherichia coli [8].

As to `O=C(c1ccc(Nc2nc(-c3ccccc3)nc3ccccc23)cc1)[n+]1nc([S-])sc1-c1ccc([N+](=O)[O-])cc1`, the zone of inhibition at 200 µg/mL came out at 15 mm in the experiment on Pseudomonas aeruginosa [1], 18 mm with Escherichia coli [4], 19 mm in the experiment on Bacillus subtilis [5] and 16 mm in the experiment with Staphylococcus aureus [6]. Besides, the MIC against Staphylococcus aureus [2] came to 32 µg/mL (≈ 56.9 µM); in the experiment with Pseudomonas aeruginosa [3], 32 µg/mL (≈ 56.9 µM); against Bacillus subtilis [7] it was 16 µg/mL (≈ 28.4 µM); in the experiment on Escherichia coli [8], 16 µg/mL (≈ 28.4 µM).

Consider `O=C(c1ccc(Nc2nc(-c3ccccc3)nc3ccccc23)cc1)[n+]1nc([S-])sc1-c1cccc([N+](=O)[O-])c1`, for which the zone of inhibition at 200 µg/mL in the experiment on Pseudomonas aeruginosa [1] was determined as 22 mm; in the experiment with Escherichia coli [4], 20 mm; with Bacillus subtilis [5] it was 16 mm; with Staphylococcus aureus [6], 21 mm. Also, the MIC with Staphylococcus aureus [2] was 8 µg/mL (≈ 14.2 µM); with Pseudomonas aeruginosa [3] it was 8 µg/mL (≈ 14.2 µM); in the experiment with Bacillus subtilis [7], 32 µg/mL (≈ 56.9 µM); against Escherichia coli [8], 16 µg/mL (≈ 28.4 µM).

`O=C(O)c1cn(C2CC2)c2cc(N3CCNCC3)c(F)cc2c1=O` [CIPROFLOXACIN]: the zone of inhibition at 200 µg/mL in the experiment with Pseudomonas aeruginosa [1] amounted to 41 mm; in the experiment on Escherichia coli [4], 38 mm; in the experiment on Bacillus subtilis [5], 35 mm; in the experiment with Staphylococcus aureus [6], 31 mm. The MIC with Staphylococcus aureus [2] worked out at 1 µg/mL (≈ 3.02 µM); with Bacillus subtilis [7], 0.5 µg/mL (≈ 1.51 µM).
